From ChEMBL document CHEMBL1201862, “PubChem BioAssay data set” (2004) come the findings set out here.

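Values below derive from 48-hour exposures of cells grown in 96-well plates, with endpoints linearly interpolated between the two concentrations bracketing the appropriate inhibition level. GI50 = concentration required for 50% inhibition of growth.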 The source made the active and inactive calls. No stated cut-off is given here; in the data, active = GI50 up to about 1.1 µM and inactive = higher.

Among the test systems are SF-539; SK-MEL-28; IGROV-1; U-251; SK-MEL-2; UACC-62; SK-OV-3; SR; A549; SNB-19; HL-60; UO-31; OVCAR-8; NCI-H460; OVCAR-4; NCI-H226; HCT-116; RXF 393; CAKI-1; UACC-257.
Holding throughout (assay): NCI-60 cell line screen, 48 h

`NC(=O)C(=O)N/N=C1/c2ccccc2CC1C1(O)C(=O)Nc2c(Cl)cc(Cl)cc21` (stereo unspecified): the GI50 with SF-539, in the assay on SK-MEL-28, in the assay with IGROV-1, with U-251, with SK-MEL-2 and in the assay with UACC-62 was > 100 µM (inactive) in each case. Moreover, the GI50 in the assay on SK-OV-3 was > 100 µM (inactive); with SR, 70.3 µM (inactive); in the assay with A549, 69.7 µM (inactive); in the assay on SNB-19, > 100 µM (inactive); in the assay with HL-60, > 100 µM (inactive); in the assay on UO-31 it was > 100 µM (inactive). Further, the GI50 is > 100 µM (inactive) in the assay with OVCAR-8; > 100 µM (inactive) with NCI-H460; > 100 µM (inactive) in the assay on OVCAR-4; > 100 µM (inactive) in the assay with NCI-H226; > 100 µM (inactive) with HCT-116; 92 µM (inactive) with RXF 393. Further, the GI50 in the assay on CAKI-1 was 81.8 µM (inactive); in the assay with UACC-257 it was > 100 µM (inactive).

Turning to `O=C(O)c1ccccc1/C=N\N(CCO)C1=NCCN1`, the GI50 in the assay with SF-539, in the assay with SK-MEL-28, in the assay on IGROV-1, in the assay with U-251, with SK-MEL-2 and in the assay with UACC-62 was > 100 µM (inactive) throughout. In addition, the GI50 in the assay with SK-OV-3, with SR, in the assay on A549, in the assay with SNB-19, with HL-60 and in the assay on UO-31 was > 100 µM (inactive) throughout. The GI50 in the assay on OVCAR-8, in the assay with NCI-H460, in the assay with OVCAR-4, in the assay with NCI-H226, in the assay on HCT-116 and in the assay with RXF 393 was > 100 µM (inactive) in each case.

In the case of `C=C1C(=O)O[C@H]2C/C(C)=C/CC[C@@]3(C)O[C@](C)(CC[C@@H]3I)[C@@H](I)C[C@@H]12`, the GI50 with SF-539 is 6.4 µM (inactive); with SK-MEL-28 it was 7.01 µM (inactive); in the assay with IGROV-1, 1.78 µM (inactive); in the assay with U-251 it was 4.49 µM (inactive); in the assay with SK-MEL-2 it was 9.02 µM (inactive); in the assay with UACC-62, 4.16 µM (inactive). Further, the GI50 was 7.24 µM (inactive) in the assay with SK-OV-3; 1.5 µM (inactive) in the assay on SR; 6.78 µM (inactive) in the assay on A549; 6.95 µM (inactive) in the assay on SNB-19; 0.893 µM (active) with HL-60; 5.66 µM (inactive) in the assay on UO-31. Also, the GI50 in the assay with OVCAR-8 is 1.88 µM (inactive); in the assay on NCI-H460, 6.38 µM (inactive); in the assay with OVCAR-4, 6.14 µM (inactive); with NCI-H226 it was 0.869 µM (active); in the assay on HCT-116, 2.92 µM (inactive); with RXF 393, 3.97 µM (inactive). For the same compound, the GI50 in the assay on CAKI-1 is 7.19 µM (inactive); in the assay on UACC-257, 5.9 µM (inactive).

Turning to `CCCOC(=O)CNC(=O)OC(C)(C)C`, the GI50 with SF-539, with SK-MEL-28, in the assay with IGROV-1, with U-251, with SK-MEL-2 and in the assay with UACC-62 was > 100 µM (inactive) in each case. For the same compound, the GI50 in the assay with SK-OV-3, in the assay with SR, in the assay on A549, with SNB-19, with HL-60 and in the assay on UO-31 was > 100 µM (inactive) throughout. The GI50 with OVCAR-8, in the assay with NCI-H460, in the assay with OVCAR-4, with NCI-H226, with HCT-116 and in the assay with RXF 393 was > 100 µM (inactive) throughout. The GI50 in the assay with CAKI-1 and in the assay with UACC-257 was > 100 µM (inactive) throughout.

On to `O=C1OC(c2ccccc2)=N/C1=C\c1cccnc1`, for which the GI50 in the assay on SF-539, in the assay on SK-MEL-28, in the assay with IGROV-1, in the assay with U-251, in the assay on SK-MEL-2 and in the assay with UACC-62 was > 100 µM (inactive) in each case. The GI50 in the assay with SK-OV-3 was > 100 µM (inactive); in the assay on SR, 33 µM (inactive); in the assay with A549 it was > 100 µM (inactive); in the assay with SNB-19, > 100 µM (inactive); in the assay on HL-60 it was 20.7 µM (inactive); with UO-31 it was > 100 µM (inactive). Besides, the GI50 in the assay with OVCAR-8, in the assay on NCI-H460, in the assay with OVCAR-4, in the assay with NCI-H226, in the assay on RXF 393 and with UACC-257 was > 100 µM (inactive) in each case.

`CC(C)C1=CC2=CC[C@@H]3[C@](C)(CCC[C@@]3(C)C(=O)O)[C@H]2CC1` [ABIETIC ACID]: the GI50 in the assay on SF-539 was > 70.8 µM (inactive); in the assay on SK-MEL-28, > 59.3 µM (inactive); in the assay with IGROV-1, 57.5 µM (inactive); in the assay on U-251, 50.1 µM (inactive); in the assay with SK-MEL-2, > 50.9 µM (inactive); with UACC-62, 36.3 µM (inactive). Besides, the GI50 is > 81.7 µM (inactive) with SK-OV-3; > 100 µM (inactive) in the assay on SR; 50.6 µM (inactive) in the assay on A549; > 67.1 µM (inactive) with SNB-19; > 50.5 µM (inactive) in the assay on HL-60; 43.7 µM (inactive) in the assay with UO-31. Moreover, the GI50 was > 56.9 µM (inactive) in the assay with OVCAR-8; 47 µM (inactive) in the assay on NCI-H460; 59.6 µM (inactive) in the assay on OVCAR-4; 49.2 µM (inactive) in the assay on NCI-H226; 45.1 µM (inactive) in the assay on HCT-116; > 62.1 µM (inactive) in the assay with RXF 393. The GI50 is 36.2 µM (inactive) in the assay with CAKI-1 and 56.1 µM (inactive) in the assay with UACC-257.

Take `CC1=COC2=C(C)C(=O)C(=O)c3c(C)ccc1c32` [MANSONONE F]: the GI50 in the assay with SF-539 was 3.21 µM (inactive); in the assay on SK-MEL-28, 14.2 µM (inactive); in the assay with IGROV-1 it was 3.74 µM (inactive); in the assay with U-251, 4.38 µM (inactive); in the assay on SK-MEL-2, 5.56 µM (inactive); in the assay with UACC-62 it was 3.24 µM (inactive). Besides, the GI50 in the assay on SK-OV-3 was 15.8 µM (inactive); with SR, 3.45 µM (inactive); in the assay with A549, 2.92 µM (inactive); in the assay on SNB-19, 4.07 µM (inactive); in the assay with HL-60, 2.1 µM (inactive); in the assay with UO-31, 14.7 µM (inactive). Moreover, the GI50 in the assay on OVCAR-8 is 2.7 µM (inactive); in the assay with NCI-H460, 2.18 µM (inactive); with OVCAR-4 it was 2.77 µM (inactive); in the assay on NCI-H226, 14.4 µM (inactive); in the assay on HCT-116, 2.61 µM (inactive); with RXF 393, 7.18 µM (inactive). Further, the GI50 in the assay on CAKI-1 is 20.3 µM (inactive); with UACC-257, 7.23 µM (inactive).
